What was measured:
Huh7 cells = assay: HCC xenograft model (Huh7 cells in Balb/c nude mice); type: in vivo, mouse; settings: 3 weeks
Protocol: (§1) Balb/c Nude mice, 5-6 weeks old, were inoculated with 1×10^7 Huh7 cells in 0.2 ml volume of Matrigel/DMEM mix. Since not every mouse developed a tumor after the inoculation of HCC cells, only those with visible tumors (about 8 weeks after inoculation) were used for subsequent experiment. The tumor-bearing mice were randomly divided to the control and the treatment group. (n=3), respectively. Mice in the treatment group had free access to drinking water containing DBZIM (2 grams/liter) only, while mice in the control group had free access to Water only. The compound treatment lasted for 3 weeks. The tumor size was measured weekly, and the tumor volume was calculated using the formula: 0.52×width^2×length.
as §1, with “group” for “group.”, “compound 9 (IBN-9) at 0.6 g/l or 1.5 g/l” for “DBZIM (2 grams/liter)”, “water” for “Water”

MKN 28 = assay: Growth inhibition assay (MTT), MKN 28; type: cell-based, human; settings: MKN 28, 72 h
Protocol: (§2) The percentage of growth inhibition was determined by using a MTT assay to measure viable cells. For the MTT assay, 1×10^3 cells per well were cultured in 96-well plates and treated with 0 to 100 μM of various types of IMSs for 72 h. After incubation for specified times at 37° C. in a humidified incubator, culture medium replaced with 10 μL of MTT reagent (5 mg/mL) contains 100 μL medium was added to each well and further incubated for 4 h. The reaction was stopped by adding 100 μL of DMSO. Absorbance was measured at 570 nm on a micro plate reader (SpectroMax 190, Molecular Devices). Data were presented from three separate experiments, and the percentage of IMSs induced cell growth inhibition was determined where DMSO-treated cells (control) were taken as 100%.
(§3) First, the cytotoxic effect of these drugs on these cells was investigated using the MTT assay. Cells were seeded into 96 well plates and treated with increasing concentrations of these synthetic organic molecules for 72 h, and then the cytotoxic effect was measured.

MDAMB231 = assay: Growth inhibition assay (MTT), MDAMB231; type: cell-based, human; settings: MDAMB231, 72 h
Protocol: as §2, §3

MCF-10A = assay: Growth inhibition assay (MTT), MCF-10A; settings: 72 h
Protocol: as §2, §3

SMILES: CC(=O)Oc1ccc(Cn2cc[n+](-c3c(C)cc(C)cc3C)c2)cc1.[Cl-] [compound 9, 1-(2,4,6-trimethylphenyl)-3-(4-acetate-benzyl)-imidazolium chloride]
- reduction of tumor volume (Huh7 cells; 0.6 g/l in drinking water): 43%
- body weight or gross pathology (Huh7 cells; 0.6 g/l or 1.5 g/l in drinking water): No change in body weight or gross pathology
- reduction of tumor volume (Huh7 cells; 1.5 g/l in drinking water): 62%
- IC50 (MKN 28): 10 µM
- IC50 (MDAMB231): 20 µM
- IC50 in normal breast epithelial cells (MCF-10A): no IC50

Reference: US9072729B2, “Method for treating fibrosis and cancer with imidazolium and imidazolinium compounds” (Agency for Science, Technology and Research, priority 2008, dated 2015)
